Activity calls are given as the source filed them. The calls are words filed in the database; no cut-off is given here.

In ChEMBL document CHEMBL4145563, “Poecillastrin H, a Chondropsin-Type Macrolide with a Conjugated Pentaene Moiety, from a Characella sp. Marine Sponge” (J Nat Prod, 2018) one finds IC50 and Activity data, which are given here for two molecules.

Assay [1] relates to 3Y1 cell line. Description: Cytotoxicity against rat 3Y1 cells after 72 hrs by MTT assay. Type of assay: functional, cell-based. The conditions noted are these: 3Y1, 72 h.
Assay [2] concerns 3Y1 cell line. The experiment in a line: Induction of morphological changes in rat 3Y1 cells assessed as elongation of cells. Type of assay: functional, cell-based.

In turn, `C/C1=C\CC(O)C(C)C(C(NC(=O)C(C)C(O)CCC(C)C(O)/C(C)=C/C(C)(C)C(O)C(CC(C)C)NC(=O)/C=C/C(C)(C)C(=O)C(C)C(O)C(C)C)C(C)O)OC(=O)[C@H](O)[C@H](C(=O)O)NC(=O)/C=C/C=C/C=C/C=C/C=C/CC2CC(C)CC(CC(O)C(C)C(O)/C(C)=C/C(C)C1O)O2` (stereo partly drawn) came in with an IC50 in the assay on 3Y1 cell line [1] of 4.1 nM. For the same molecule, the result in the assay with 3Y1 cell line [2] was Active.

With `CO/C1=C\C(C)=C\[C@@H](C)[C@@H](O)[C@@H](C)C/C(C)=C/C=C/[C@H](OC)[C@@H]([C@@H](C)[C@@H](O)[C@H](C)[C@@]2(O)C[C@@H](O)[C@H](C)[C@@H](C(C)C)O2)OC1=O`, in the assay on 3Y1 cell line [2], the outcome was Active.

In general, IC50 refers to the point on the concentration scale where inhibition reaches its midpoint. Read a low IC50 as greater potency in that assay.
